Data from patent publication US10478437B2, “Combination therapy to enhance the anticancer efficacy of platinum drugs” (University of Pittsburgh-of the Commonwealth System of …, priority 2014, dated 2019).

Legend:
Format in all cases: cell-based, human
A2780cis cells [1] = assay: Extracellular flux analysis, oxygen consumption rate (OCR), Seahorse XF24; conditions: compound 50 μM + cisplatin 50 μM, 4 h, FIG. 8B; in words
Description: Oxygen consumption rate (OCR) and extracellular acidification rate (ECAR) were measured as previously described (Qian and Van Houten, 2010). Cells were seeded in XF24 cell culture plates at 4×10^4 cells/well and incubated in 5% CO2 at 37° C. Prior to the analysis, cells were washed and growth medium was replaced with bicarbonate-free modified RPMI 1640 medium, the “assay medium” (Molecular Devices, Sunnyvale, Calif.). Cells were then incubated for another 60 min in a 37° C. incubator without CO2. OCR and ECAR measurements were then performed simultaneously using a Seahorse XF24 Extracellular Flux Analyzer (Seahorse Bioscience, North Billerica, Mass.).
To determine the effects of the compounds on DNA damage and mitochondrial dysfunction, A2780cis cells were treated with cisplatin (20 μM) alone or the combination of cisplatin with 20 μM of compound 1-6. Replication protein A (RPA) is a single strand-specific DNA-binding protein, consisting of three subunits, RPA70, RPA32, and RPA14. RPA32 is phosphorylated in response to DNA replication stress. Western blot analysis was performed to evaluate the phosphorylation of RPA32 and histone H2AX, the induction of Noxa expression and cleavage of caspase-3. […] The oxygen consumption rate (OCR) was measured by a Seahorse extracellular flux analyzer.

A2780cis cells [2] = assay: Short-term (3 h) exposure, cell survival by CellTiter-Blue after 48 h in compound free media; conditions: 20 μM compound with various doses of cisplatin, viability after two days, in words
Description: FIG. 5. Short-term exposure of A2780cis cells to the combination of cisplatin and compound 1-6 dramatically reduces cell survival. A2780cis cells were treated with increasing doses of cisplatin alone or the combination of cisplatin with compound 1-6 (20 μM) for 3 h. The compounds were then washed out. Cell survival was determined after 48 h incubation of cells in compound free media by CellTiter-Blue assay.
Further analysis was performed with compound 1-6. […] This synergism for the combination of cisplatin and 1-6 was further confirmed using a fresh sample of high chemical purity (98%). This synergistic effect was also observed using the CellTiter-Blue cell viability assay (FIG. 5) under an alternative exposure strategy that mimics in viva drug administration to test the combination effect. Considering the clearance of cisplatin over the time and the duration of exposure of tumor cells to the effective doses of the drugs in vivo (Los et al., 1989), a short-term exposure of cells to the combination of 20 μM of 1-6 with various doses of cisplatin was tested, followed by cell viability assay after two days.

[3] = tested on: cisplatin-resistant ovarian cancer cell line A2780cis; assay: CellTiter-Blue cell viability assay, compound alone or with cisplatin or carboplatin, 24 h; conditions: for Combination Index: CompuSyn software
In short: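 A2780cis cells received compound at 10, 20 or 50 μM, alone or with cisplatin or carboplatin, for 24 h before CellTiter-Blue viability read-out. Data are mean±SD, combinations vs compound alone compared by Student's t test (P<0.05), and combination index computed by the Chou method.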

[4] = compound 10 μM with cisplatin (20 μM)
[5] = compound 20 μM with cisplatin (20 μM)
[6] = compound 50 μM with cisplatin (20 μM)

CCOCCCn1c(=S)[nH]c2c(C)cccc2c1=O [Compound 1-6]
mitochondrial function (OCR, response to oligomycin) after combination with cisplatin (A2780cis cells [1]): uncoupling of mitochondria was observed | effect of 3 hr exposure to the combination with cisplatin on proliferation (A2780cis cells [2]): severe long-term proliferation defect | cell viability after combination with carboplatin compared to carboplatin alone ([3]; 24 h, FIG. 6, in words): cell viability was reduced | viability at 10 µM ([3]; Homo sapiens, A2780cis, compound 10 μM, 24 h, untreated cells = 100%, read-out: survival (%) of cells with compound alone): 98.9 ± 3.1% | viability at 20 µM ([3]; Homo sapiens, A2780cis, compound 20 μM, 24 h, untreated cells = 100%, read-out: survival (%) of cells with compound alone): 95.4 ± 4.2% | viability at 50 µM ([3]; Homo sapiens, A2780cis, compound 50 μM, 24 h, untreated cells = 100%, read-out: survival (%) of cells with compound alone): 93.7 ± 4.4% | Survival (%) of cells with compound and carboplatin (200 μM) ([3]; compound 10 μM + carboplatin 200 μM, 24 h): 64.5 ± 2.7% | survival (%) of cells with compound and cisplatin (20 μM) ([3]; compound 10 μM + cisplatin 20 μM, 24 h): 58.8 ± 1.5% | Grading (of combination index) [3, 4]: Synergism | Combination Index [3, 4]: 0.67 | potency at enhancing the cytotoxicity of cisplatin compared to mdivi-1 ([3]; compound 10 μM with cisplatin, FIG. 4, in words): more potent than mdivi-1 | Survival (%) of cells with compound and carboplatin (200 μM) ([3]; compound 20 μM + carboplatin 200 μM, 24 h): 48.0 ± 3.0% | survival (%) of cells with compound and cisplatin (20 μM) ([3]; compound 20 μM + cisplatin 20 μM, 24 h): 28.0 ± 1.6% | Grading (of combination index) [3, 5]: Strong | Combination Index [3, 5]: 0.24 | Survival (%) of cells with compound and carboplatin (200 μM) ([3]; compound 50 μM + carboplatin 200 μM, 24 h): 2.5 ± 0.4% | survival (%) of cells with compound and cisplatin (20 μM) ([3]; compound 50 μM + cisplatin 20 μM, 24 h): 1.5 ± 0.6% | Grading (of combination index) [3, 6]: Very strong | Combination Index [3, 6]: 0.01
